This note sets out measurements from US3966735A, “1-3-(4-Fluorobenzoyl)propyl-4-substituted phenoxy ethyl piperazine” (Kali-Chemie Aktiengesellschaft, priority 1973, dated 1976).

The subject of series [1] is female mice of the NMRI strain. Briefly: Squirrel-cage test for determining effect of drugs on motility (Test 4). Format: in vivo, mouse (female mice of the NMRI strain). The following applies: peroral, 20 mice, revolutions over 5 hours, compared with peroral chlordiazepoxide. The procedure: 4. Squirrel-cage test for determining effect of drugs on motility: The test substance is administered perorally to female mice of the NMRI strain that had previously not been exercised in a squirrel cage. Twenty mice are placed into the revolving cylinder of the squirrel cage and they are allowed to run freely therein. The number of revolutions through which the cylinder in the squirrel cage spins every 15 minutes is noted during the course of an extended period of 5 hours, when the test is discontinued. The average of the number of revolutions per minute is calculated and represented on a graph. These values are then compared with […] and the results are reported in milligrams per kilogram of body weight.

Series [2] can be described thus: Acute toxicity, single oral administration (Test 1). The following applies: mouse, in vivo, fasting white mice, NMRI strain, Litchfield and Wilcoxon. The procedure:
1. Acute toxicity: The acute toxicity is determined by a single oral administration to fasting white mice of the NMRI strain. The […] lethal dose (LD50) is computed in accordance with the method described by J.T. Litchfield and F. Wilcoxon in Journal of Pharmacology and Experimental Therapeutics, vol. 96, page 99 (1949).

Series [3] deals with female mice of the NMRI strain. Briefly: Test of sedative effectiveness (Test 3). The following applies: Mus musculus, ip, 0.5 h; intraperitoneal, on awakening from 100 mg/kg hexobarbital i.p.; dose required to induce sleep for 30 minutes; read-out: Effective sedative dose ED50 (Test 3). Format: in vivo, mouse (female mice of the NMRI strain). The procedure:
3. Test of sedative effectiveness: In this test is measured the period of narcosis that is induced by the test substance following a period of narcosis induced by hexobarbital. A dose of 100 milligrams of hexobarbital per kilogram of body weight is administered intraperitoneally to female mice of the NMRI strain. As soon as the mouse revives or awakens from the narcosis induced by the dose of hexobarbital, a measured dose of the test substance is administered intraperitoneally. The period between the administration of the test substance and the second revival of the mouse is then noted. From the length of this second period is calculated the dose of the test substance that was required to induce sleep for a period of 30 minutes and this dose is referred to as the effective sedative dose (ED50).

Series [4] deals with mouse. Briefly: Test of prolongation of narcosis induced by hexobarbital (Test 2). Format: in vivo. The following applies: peroral, 30 minutes before 65 mg/kg hexobarbital i.v., dose required to double the sleeping time, read-out: Narcotic prolongation effect (Test 2). The procedure: 2. Test of prolongation of narcosis induced by hexobarbital: In accordance with this test, the test substance is administered perorally to a mouse. After an interval of 30 minutes, a dose of 65 milligrams of hexobarbital per kilogram of body weight is administered intravenously. The result is reported as the dose of the test compound that was required to double the period of sleeping time that was induced by the hexobarbital.

As a reminder, the LD50 is the dose expected to kill half of the subjects tested. Read a low LD50 as a more toxic substance. One may read the ED50 as the midpoint of the dose-response relation.

Regarding `Cl.Cl.N#Cc1ccc(OCCN2CCN(CCCC(=O)c3ccc(F)cc3)CC2)cc1` [Substance 1, 1-[3-(4-Fluorobenzoyl)propyl]-4-[2-(4-cyanophenoxy)ethyl]-piperazine dihydrochloride], in series [1], the “Squirrel cage motility test versus 21.5 mg/kg chlordiazepoxide (Test 4)” value is 0.7 mg/kg. In addition, in series [2], the LD50 was found to be 215 mg/kg. For the same molecule, the ED50 in series [3] was 21.5 mg/kg. Also, the ED (2-fold sleeping time) in series [4] is 10 mg/kg.

With `Cl.Cl.O=C(CCCN1CCN(CCSc2ccc(Cl)cc2)CC1)c1ccc(F)cc1` [Substance 2, 1-[3-(4-Fluorobenzoyl)propyl]-4-[2-(4-chlorophenylthio)-ethyl]piperazine dihydrochloride], the “Squirrel cage motility test versus 21.5 mg/kg chlordiazepoxide (Test 4)” value in series [1] is reported as above 10 mg/kg. In series [2], this molecule showed an LD50 above 1470 mg/kg. The ED50 in series [3] is 30 mg/kg. Also, the ED (2-fold sleeping time) in series [4] was 20 mg/kg.

As for `CCC(=O)c1ccc(OCCN2CCN(CCCC(=O)c3ccc(F)cc3)CC2)c(Cl)c1.Cl.Cl` [Substance 3, 1-[3-(4-Fluorobenzoyl)propyl]-4-[2-(4-propionyl-2-chlorophenoxy)ethyl]piperazine dihydrochloride], the “Squirrel cage motility test versus 21.5 mg/kg chlordiazepoxide (Test 4)” value in series [1] is 1.5 mg/kg. Moreover, the LD50 in series [2] amounted to 860 mg/kg. For the same molecule, in series [3], the ED50 is 14 mg/kg. In series [4], the ED (2-fold sleeping time) came to 20 mg/kg.

Regarding `Cc1ccc(OCCN2CCN(CCCC(=O)c3ccc(F)cc3)CC2)c([N+](=O)[O-])c1.Cl.Cl` [Substance 4, 1-[3-(4-Fluorobenzoyl)propyl]-4-[2-(4-methyl-2-nitrophenoxy)ethyl]piperazine dihydrochloride], in series [2], the LD50 came to 1720 mg/kg. Further, the ED50 in series [3] was 46 mg/kg. The ED (2-fold sleeping time) in series [4] stood at 20 mg/kg.

For `COc1cc(C)ccc1OCCN1CCN(CCCC(=O)c2ccc(F)cc2)CC1.Cl.Cl` [Substance 5, 1-[3-(4-Fluorobenzoyl)propyl]-4-[2-(4-methyl-2-methoxyphenoxy)ethyl]piperazine dihydrochloride], the “Squirrel cage motility test versus 21.5 mg/kg chlordiazepoxide (Test 4)” value in series [1] is given as 3.2 mg/kg. Besides, in series [2], the LD50 was 458 mg/kg. Moreover, in series [3], the ED50 was determined as 7 mg/kg. The ED (2-fold sleeping time) in series [4] is 46 mg/kg.

Turning to `Cc1ccc([N+](=O)[O-])cc1OCCN1CCN(CCCC(=O)c2ccc(F)cc2)CC1.Cl.Cl` [Substance 6, 1-[3-(4-Fluorobenzoyl)propyl]-4-[2-(5-nitro-2-methylphenoxy)ethyl]piperazine dihydrochloride], the LD50 in series [2] was above 1470 mg/kg. Further, the median effective dose (ED50) in series [3] worked out at 23 mg/kg. In series [4], the ED (2-fold sleeping time) is 32 mg/kg.

`CS(=O)(=O)c1ccc(OCCN2CCN(CCCC(=O)c3ccc(F)cc3)CC2)cc1.Cl.Cl` [Substance 7, 1-[3-(4-Fluorobenzoyl)propyl]-4-[2-(4-methylsulfonylphenoxy)ethyl]piperazine dihydrochloride]: in series [1], the “Squirrel cage motility test versus 21.5 mg/kg chlordiazepoxide (Test 4)” value is recorded as 6.8 mg/kg. The same molecule came in with an LD50 in series [2] of 825 mg/kg. In addition, in series [3], the ED50 turned out to be 30 mg/kg. Also, the ED (2-fold sleeping time) in series [4] stood at 46 mg/kg.

Regarding `Cl.Cl.O=C(CCCN1CCN(CCSc2ccc([N+](=O)[O-])cc2)CC1)c1ccc(F)cc1` [Substance 8, 1-[3-(4-Fluorobenzoyl)propyl]-4-[2-(4-nitrophenylthio)-ethyl]piperazine dihydrochloride], the “Squirrel cage motility test versus 21.5 mg/kg chlordiazepoxide (Test 4)” value in series [1] is listed as 6.8 mg/kg. The same molecule returned an LD50 in series [2] of 499 mg/kg. Besides, the ED50 in series [3] was determined as 30 mg/kg. Also, the ED (2-fold sleeping time) in series [4] stood at 6 mg/kg.
